Source: patent US9377460B2 (priority 2009, dated 2016)

What was measured:
[1] = test system: IFN-gamma-secreting T cells; type: cell-based, human; settings: for Proportion of responders to the Rv3615c peptide pool who respond to the individual peptide, LTBI % / Proportion of responders to the Rv3615c peptide pool who respond to the individual peptide, LTBI n: LTBI subjects; for Proportion of responders to the Rv3615c peptide pool who respond to the individual peptide, LTBI n / Proportion of responders to the Rv3615c peptide pool who respond to the individual peptide, Cases n: subjects responding/pool responders tested; for Proportion of responders to the Rv3615c peptide pool who respond to the individual peptide, Cases % / Proportion of responders to the Rv3615c peptide pool who respond to the individual peptide, Cases n: active TB cases
CD4-positive T cells = assay: FACS analysis following cytokine capture assay (IFN-gamma / IL-2); type: cell-based, human; settings: subject T416 (LTBI), 6 hour stimulation

Row | Sequence | Proportion of responders to the Rv3615c peptide pool who respond to the individual peptide, LTBI % [1] [%] | Proportion of responders to the Rv3615c peptide pool who respond to the individual peptide, LTBI n [1] | Proportion of responders to the Rv3615c peptide pool who respond to the individual peptide, Cases % [1] [%] | Proportion of responders to the Rv3615c peptide pool who respond to the individual peptide, Cases n [1] | CD4 T cells secreting IFN-gamma only, relative size of subset (CD4-positive T cells) | CD4 T cells secreting IL-2 only, relative size of subset (CD4-positive T cells) | CD4 T cells secreting both IFN-gamma and IL-2, relative size of subset (CD4-positive T cells)
1 | AHNALGSSLHTAGVD (listed as Mycobacterium tuberculosis) [p13, 15mer peptide of Rv3615c] | 0 | 0/4 | 21 | 3/14 | – | – | –
2 | AITHGPYCSQFNDTL (listed as Mycobacterium tuberculosis) [p9, 15mer peptide of Rv3615c] | 40 | 2/5 | 0 | 0/15 | – | – | –
3 | ASHHDNAAVDASSGV (listed as Mycobacterium tuberculosis) [p4, 15mer peptide of Rv3615c] | 20 | 1/5 | 13 | 2/15 | – | – | –
4 | ASSGVEAAAGLGESV (listed as Mycobacterium tuberculosis) [p6, 15mer peptide of Rv3615c] | 0 | 0/5 | 7 | 1/15 | – | – | –
5 | DEAWRKAIDGLFT (listed as Mycobacterium tuberculosis) [p19, carboxy-terminal peptide of Rv3615c] | 25 | 1/4 | 15 | 2/13 | – | – | –
6 | EAAAGLGESVAITHG (listed as Mycobacterium tuberculosis) [p7, 15mer peptide of Rv3615c] | 0 | 0/5 | 7 | 1/15 | – | – | –
7 | FNDTLNVYLTAHNAL (listed as Mycobacterium tuberculosis) [p11, 15mer peptide of Rv3615c] | 0 | 0/5 | 27 | 4/15 | – | – | –
8 | GSSLHTAGVDLAKSL (listed as Mycobacterium tuberculosis) [p14, 15mer peptide of Rv3615c] | 50 | 2/4 | 79 | 11/14 | smallest population | second largest population | dominant population
9 | IYSEADEAWRKAIDG (listed as Mycobacterium tuberculosis) [p18, 15mer peptide of Rv3615c] | 25 | 1/4 | 8 | 1/13 | – | – | –
10 | LAKSLRIAAKIYSEA (listed as Mycobacterium tuberculosis) [p16, 15mer peptide of Rv3615c] | 100 | 4/4 | 69 | 9/13 | smallest population | second largest population | dominant population
11 | LGESVAITHGPYCSQ (listed as Mycobacterium tuberculosis) [p8, 15mer peptide of Rv3615c] | 0 | 0/5 | 7 | 1/15 | – | – | –
12 | MTENLTVQPERLGVL (listed as Mycobacterium tuberculosis) [p1, 15mer peptide of Rv3615c] | 0 | 0/5 | 7 | 1/15 | – | – | –
13 | NAAVDASSGVEAAAG (listed as Mycobacterium tuberculosis) [p5, 15mer peptide of Rv3615c] | 20 | 1/5 | 13 | 2/15 | – | – | –
14 | NVYLTAHNALGSSLH (listed as Mycobacterium tuberculosis) [p12, 15mer peptide of Rv3615c] | 40 | 2/5 | 43 | 6/14 | – | – | –
15 | PYCSQFNDTLNVYLT (listed as Mycobacterium tuberculosis) [p10, 15mer peptide of Rv3615c] | 40 | 2/5 | 40 | 6/15 | – | – | –
16 | RIAAKIYSEADEAWR (listed as Mycobacterium tuberculosis) [p17, 15mer peptide of Rv3615c] | 50 | 2/2 | 38 | 5/13 | – | – | –
17 | RLGVLASHHDNAAVD (listed as Mycobacterium tuberculosis) [p3, 15mer peptide of Rv3615c] | 40 | 2/5 | 20 | 3/15 | – | – | –
18 | TAGVDLAKSLRIAAK (listed as Mycobacterium tuberculosis) [p15, 15mer peptide of Rv3615c] | 50 | 2/4 | 71 | 10/14 | – | – | –
19 | TVQPERLGVLASHHD (listed as Mycobacterium tuberculosis) [p2, 15mer peptide of Rv3615c] | 0 | 0/5 | 33 | 5/15 | – | – | –
